Data: patent US8513232B2, “Substituted spirocyclic piperidine derivatives as histamine-3 (H3) receptor ligands” (Cephalon, Inc., priority 2008, dated 2013)
Read-outs that look alike come from different tables or passages of the source.

Key:
[1] = target: T1, human H3 receptor (Homo sapiens, UniProt Q9Y5N1); assay: Human H3 radioligand binding ([3H]-N-alpha-methylhistamine, SPA)
T1 construct: expressed in transfected cells
Summary of the method: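 SPA competition binding on membranes from CHO cells stably expressing human H3 receptor (10 μg protein/well) with ~1 nM [3H]-N-alpha-methylhistamine and compound at 0.01 nM-30 μM. Incubation 4 h at room temperature in 50 mM Tris-HCl pH 7.4, 5 mM MgCl2, 0.1% BSA; non-specific binding defined with 10 μM clobenpropit.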

[2] = target: T2, rat histamine H3 receptor (Rattus norvegicus, UniProt Q9QYN8); assay: Rat H3 radioligand binding ([3H]-N-alpha-methylhistamine, SPA)
T2 construct: encoding the entire 445-amino-acid rat histamine H3 receptor; expressed in transfected cells; membrane preparation
Summary of the method: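 Membranes from CHO-A3 cells stably expressing full-length rat H3 receptor (10 μg protein/well) incubated 4 h at room temperature, protected from light, with ~1 nM [3H]-N-alpha-methylhistamine and compound (0.01 nM-30 μM) in 50 mM Tris HCl pH 7.4, 5 mM MgCl2, 0.1% BSA. Binding read by SPA; 10 μM clobenpropit defined non-specific binding.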

[3] = Table A, human H3 binding, read-out: Human Ki
[4] = Table A, rat H3 binding, read-out: Rat Ki
[5] = Human H3 binding, Table B, Examples 136-362, read-out: hum H3 binding Ki
[6] = Rat H3 binding, Table B, Examples 136-362, read-out: rat H3 binding Ki
[7] = human H3 binding, Table D, read-out: Human H3 Ki
[8] = rat H3 binding, Table D, read-out: Rat H3 Ki
[9] = Table C, human H3 binding, read-out: Human H3 Ki
[10] = Table C, rat H3 binding, read-out: Rat H3 Ki

T2 sequence (Q9QYN8 whole entry): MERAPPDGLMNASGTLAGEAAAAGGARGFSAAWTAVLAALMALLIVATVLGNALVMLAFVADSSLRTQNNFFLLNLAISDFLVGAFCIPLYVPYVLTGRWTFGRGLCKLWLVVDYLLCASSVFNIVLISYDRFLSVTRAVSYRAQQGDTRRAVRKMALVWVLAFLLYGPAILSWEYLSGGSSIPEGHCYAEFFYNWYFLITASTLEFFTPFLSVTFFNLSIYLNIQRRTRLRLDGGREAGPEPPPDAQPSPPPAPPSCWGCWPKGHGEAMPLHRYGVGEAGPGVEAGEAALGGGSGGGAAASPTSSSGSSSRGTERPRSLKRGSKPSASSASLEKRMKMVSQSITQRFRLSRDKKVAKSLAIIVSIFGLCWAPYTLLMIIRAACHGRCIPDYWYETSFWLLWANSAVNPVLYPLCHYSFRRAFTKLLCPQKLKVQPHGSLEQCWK
T1 sequence (Q9Y5N1 whole entry): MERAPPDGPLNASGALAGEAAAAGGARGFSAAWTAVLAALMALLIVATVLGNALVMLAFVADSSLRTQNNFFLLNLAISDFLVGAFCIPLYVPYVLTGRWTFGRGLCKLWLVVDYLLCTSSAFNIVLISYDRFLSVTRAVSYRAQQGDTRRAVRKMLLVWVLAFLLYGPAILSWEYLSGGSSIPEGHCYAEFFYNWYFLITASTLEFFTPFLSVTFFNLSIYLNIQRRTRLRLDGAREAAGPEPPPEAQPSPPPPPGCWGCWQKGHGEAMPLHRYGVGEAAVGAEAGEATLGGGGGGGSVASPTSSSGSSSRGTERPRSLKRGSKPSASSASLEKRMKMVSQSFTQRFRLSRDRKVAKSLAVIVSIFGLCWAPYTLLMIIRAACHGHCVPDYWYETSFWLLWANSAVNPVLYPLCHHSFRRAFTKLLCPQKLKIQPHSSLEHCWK

SMILES | melting point | Ki [1, 7] | Ki [2, 8] | other results
O=C1CCC(c2ccc3c(c2)CCC2(CCN(C4CCC4)CC2)O3)CN1 (stereo not drawn) [Example 534] | 292 to 294 °C | – | – | Ki ([1]; read-out: Human H3 Ki): < 200 nM; Ki ([2]; read-out: Rat H3 kI): < 200 nM
O=c1cc(-c2ccc3c(c2)COC2(CCN(C4CCC4)CC2)O3)ccn1C(F)F [Example 775] | 175 to 177 °C | < 200 nM | < 200 nM | –
COc1ccncc1-c1ccc2c(c1)COC1(CCN(C3CCC3)CC1)O2 [Example 749] | 58 to 60 °C | < 200 nM | < 200 nM | –
O=C(C1CC(O)(c2ccc3c(c2)COC2(CCN(C4CCC4)CC2)O3)C1)N1CCCC1 (stereo not drawn) [Example 482] | 157 to 159 °C | – | – | Ki ([1]; read-out: Human H3 Ki): < 200 nM; Ki ([2]; read-out: Rat H3 kI): < 200 nM
OC1(c2ccc3c(c2)COC2(CCN(C4CCC4)CC2)O3)CCC(F)(F)CC1 [Example 554] | 186 to 187 °C | – | – | Ki ([1]; read-out: Human H3 Ki): < 200 nM; Ki ([2]; read-out: Rat H3 kI): < 200 nM
O=C(NC1CCN(c2ccc3c(c2)COC2(CCN(C4CCC4)CC2)O3)CC1)N1CCCC1 [Example 319] | 210.2 to 212.6 °C | – | – | Ki [1, 5]: < 200 nM; Ki [2, 6]: < 200 nM
Cc1cc(=O)[nH]cc1-c1ccc2c(c1)CCC1(CCN(C3CCC3)CC1)O2 [Example 771] | 252 to 254 °C | < 200 nM | < 200 nM | –
O=c1[nH]cc(-c2ccc3c(c2)COC2(CCN(C4CCC4)CC2)O3)cc1CO [Example 773] | 228 to 230 °C | < 200 nM | < 200 nM | –
c1cnc(-c2ccc3c(c2)COC2(CCN(C4CCC4)CC2)O3)cn1 [Example 71] | 114 to 115 °C | – | – | Ki [1, 3]: < 200 nM; Ki [2, 4]: < 200 nM
CC(C)C(=O)NC1CCN(c2ccc3c(c2)CCC2(CCN(C4CCC4)CC2)O3)CC1 [Example 571] | 199.3 to 201.2 °C | < 200 nM | < 200 nM | –
CNC(=O)c1cnc(-c2ccc3c(c2)CCC2(CCN(C4CCC4)CC2)O3)s1 [Example 218] | 201 to 203 °C | – | – | Ki [1, 5]: < 200 nM; Ki [2, 6]: < 200 nM
Cc1cc(C2CCN(c3ccc4c(c3)COC3(CCN(C5CCC5)CC3)O4)CC2)on1 [Example 665] | 135.9 to 137.2 °C | < 200 nM | < 200 nM | –
O=C(N[C@H]1CCOC1)c1ccc(-c2ccc3c(c2)COC2(CCN(C4CCC4)CC2)O3)cc1Cl [Example 611] | 185 to 187 °C | < 200 nM | < 200 nM | –
O=C1CCC(Cc2ccc3c(c2)COC2(CCN(C4CCC4)CC2)O3)CN1 (stereo not drawn) [Example 539] | 219 to 221 °C | – | – | Ki ([1]; read-out: Human H3 Ki): < 200 nM; Ki ([2]; read-out: Rat H3 kI): < 200 nM
CNS(=O)(=O)c1ccc(-c2ccc3c(c2)COC2(CCN(C4CCC4)CC2)O3)cc1Cl [Example 620] | 127 to 129 °C | < 200 nM | < 200 nM | –
O=C(N1CCOCC1)N1CCN(c2ccc3c(c2)CCC2(CCN(C4CCC4)CC2)O3)CC1 [Example 386] | 292 to 294 °C | – | – | Ki [1, 9]: < 200 nM; Ki [2, 10]: < 200 nM
c1ncc(COc2ccc3c(c2)CCC2(CCN(C4CCC4)CC2)O3)o1 [Example 325] | 45 to 47 °C | – | – | Ki [1, 5]: < 200 nM; Ki [2, 6]: < 200 nM
C/C=C(\CC)c1ccc2c(c1)COC1(CCN(C3CCC3)CC1)O2 [Example 677] | 223.5 to 225.8 °C | < 200 nM | < 200 nM | –
O=C(c1ccc(-c2ccc3c(c2)OC2(CCN(C4CCC4)CC2)O3)cc1)N1CCCC1 [Example 90] | 176.8 to 177.3 °C | – | – | Ki [1, 3]: < 200 nM; Ki [2, 4]: 200 to 1000 nM
CNC(=O)c1ccc(-c2ccc3c(c2)COC2(CCN(C4CCC4)CC2)O3)cc1 [Example 33] | 198 to 199 °C | – | – | Ki [1, 3]: < 200 nM; Ki [2, 4]: < 200 nM
Cc1nc(-c2ccc3c(c2)COC2(CCN(C4CCC4)CC2)O3)cs1 [Example 74] | 151 to 153 °C | – | – | Ki [1, 3]: < 200 nM; Ki [2, 4]: < 200 nM
CCc1nc(OC)ccc1-c1ccc2c(c1)COC1(CCN(C3CCC3)CC1)O2 [Example 789] | 59 to 61 °C | < 200 nM | < 200 nM | –
FC1(F)CCN(c2ccc3c(c2)COC2(CCN(C4CCC4)CC2)O3)CC1 [Example 422] | > 250 °C (dec.) | – | – | Ki [1, 9]: < 200 nM; Ki [2, 10]: 200 to 1000 nM
Cn1cc2c(n1)CCN(c1ccc3c(c1)CCC1(CCN(C4CCC4)CC1)O3)C2 [Example 430] | 132 to 134 °C | – | – | Ki [1, 9]: < 200 nM; Ki [2, 10]: < 200 nM
COC1(c2ccc3c(c2)COC2(CCN(C4CCC4)CC2)O3)CCC1 [Example 559] | < 50 °C | – | – | Ki ([1]; read-out: Human H3 Ki): < 200 nM; Ki ([2]; read-out: Rat H3 kI): < 200 nM

Further lines, with some results ahead:

melting point | Ki [1, 7] | Ki [2, 8] | SMILES | other results
197 to 198 °C | – | – | CNC(=O)c1ccc(-c2ccc3c(c2)CC2(CCN(C4CCC4)CC2)O3)cc1 [Example 134, 1′-Cyclobutyl-spirobenzofuran-2(3H)-4′-piperidine-(5-(4-methylaminocarbamoylphenyl))] | Ki [1, 3]: < 200 nM; Ki [2, 4]: < 200 nM
194 to 195 °C | – | – | O=C(N[C@@H]1CCOC1)c1ccc(-c2ccc3c(c2)CCC2(CCN(C4CCC4)CC2)O3)cc1 [Example 341] | Ki [1, 5]: < 200 nM; Ki [2, 6]: < 200 nM
206 to 207 °C | – | – | O=C(Nc1ccc2c(c1)COC1(CCN(C3CCC3)CC1)O2)c1ccnnc1 [Example 203] | Ki [1, 5]: < 200 nM; Ki [2, 6]: < 200 nM
167 to 169 °C | < 200 nM | 200 to 1000 nM | O=C(CCc1ccc2c(c1)COC1(CCN(C3CCC3)CC1)O2)NC1CCOCC1 [Example 645] | –
205 to 207 °C | < 200 nM | < 200 nM | CCSCc1cc(-c2ccc3c(c2)COC2(CCN(C4CCC4)CC2)O3)c[nH]c1=O [Example 774] | –
168 to 169 °C | – | – | c1cnc(N2CCN(c3ccc4c(c3)CCC3(CCN(C5CCC5)CC3)O4)CC2)cn1 [Example 370] | Ki [1, 9]: < 200 nM; Ki [2, 10]: < 200 nM
187 to 188 °C | – | – | O=C1CCCN1c1ccc2c(c1)COC1(CCN(C3CCC3)CC1)O2 [Example 78] | Ki [1, 3]: < 200 nM; Ki [2, 4]: 200 to 1000 nM
165 to 166 °C | – | – | c1nc(-c2ccc3c(c2)COC2(CCN(C4CCC4)CC2)O3)cs1 [Example 66] | Ki [1, 3]: < 200 nM; Ki [2, 4]: < 200 nM
71 to 74 °C | < 200 nM | < 200 nM | CCOC(=O)c1cc(=O)n(C)cc1-c1ccc2c(c1)COC1(CCN(C3CCC3)CC1)O2 [Example 762] | –
105 to 107 °C | < 200 nM | < 200 nM | COCCN(C)C(=O)c1ccc(-c2ccc3c(c2)COC2(CCN(C4CCC4)CC2)O3)cc1Cl [Example 577] | –
205 to 207 °C | < 200 nM | < 200 nM | c1cc2c(cc1-c1cn[nH]c1)COC1(CCN(C3CCC3)CC1)O2 [Example 750] | –
230 to 232 °C | < 200 nM | < 200 nM | O=c1[nH]ccc(-c2ccc3c(c2)COC2(CCN(C4CCC4)CC2)O3)c1Cl [Example 666] | –
290 to 292 °C | – | – | O=C(C1CCN(c2ccc3c(c2)CCC2(CCN(C4CCC4)CC2)O3)CC1)N1CCCC1 [Example 418] | Ki [1, 9]: < 200 nM; Ki [2, 10]: < 200 nM
142 to 145 °C | < 200 nM | < 200 nM | COc1ncc(-c2ccc3c(c2)COC2(CCN(C4CCC4)CC2)O3)cc1C [Example 610] | –
